Data taken from patent publication US20080234262A1 (Wyeth, priority 2007, published 2008).

Columns and labels:
prostate line LNCap = assay: In vitro cell culture growth assay (MTS), LNCap; format: cell-based, human; conditions: LNCap cells, three days after drug treatment;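 also: viable cell density read by absorbance at 490 nm, growth expressed as percent of vehicle-treated cells on the same plate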
breast line MDA468 = assay: In vitro cell culture growth assay (MTS), MDA468; format: cell-based, human; conditions: MDA468 cells, three days after drug treatment
How it was run: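 Three-day drug treatment starting 1 day post-plating; viable cells quantified via MTS metabolism (A490); effect normalised to in-plate vehicle controls as % growth.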

IC50 (prostate line LNCap; Homo sapiens, LNCaP, 72 h) [µM]	IC50 (prostate line LNCap) [µM]	SMILES	IC50 (breast line MDA468; Homo sapiens, 72 h) [µM]	IC50 (breast line MDA468) [µM]
0.14	–	O=C(c1ccccc1)N1CCC(n2ncc3c(N4CCOCC4)nc(-c4cccc(O)c4)nc32)CC1 [Compound 25, 3-[1-(1-benzoylpiperidin-4-yl)-4-morpholin-4-yl-1H-pyrazolo[3,4-d]pyrimidin-6-yl]phenol]	0.7	–
0.38	–	O=C(c1cccnc1)N1CCC(n2ncc3c(N4CCOCC4)nc(-c4ccc5[nH]ccc5c4)nc32)CC1 [Compound 38, 6-(1H-indol-5-yl)-4-morpholin-4-yl-1-[1-(pyridin-3-ylcarbonyl)piperidin-4-yl]-1H-pyrazolo[3,4-d]pyrimidine]	1.1	–
8	–	CC(=O)Nc1cccc(-c2nc(N3CCOCC3)c3cnn(C4CCN(Cc5ccccc5)CC4)c3n2)c1 [Compound 78]	12	–
4.5	–	Nc1ccc(-c2nc(N3CCOCC3)c3cnn(C4CCN(Cc5ccccc5)CC4)c3n2)cc1 [Compound 79]	10	–
3	–	Nc1ccc(-c2nc(N3CCOCC3)c3cnn(-c4ccccc4)c3n2)cc1 [Compound 106, 4-(4-morpholin-4-yl-1-phenyl-1H-pyrazolo[3,4-d]pyrimidin-6-yl)aniline4-(4-morpholin-4-yl-1-phenyl-1H-pyrazolo[3,4-d]pyrimidin-6-yl)aniline]	11	–
3.5	–	Nc1cccc(-c2nc(N3CCOCC3)c3cnn(-c4ccccc4)c3n2)c1 [Compound 107]	10	–
60	–	CC(=O)Nc1ccc(-c2nc(N3CCOCC3)c3cnn(-c4ccccc4)c3n2)cc1 [Compound 108, N-[4-(4-morpholin-4-yl-1-phenyl-1H-pyrazolo[3,4-d]pyrimidin-6-yl)phenyl]acetamide]	60	–
2	–	c1ccc(-n2ncc3c(N4CCOCC4)nc(-c4ccc5[nH]ccc5c4)nc32)cc1 [Compound 110]	5.5	–
1.2	–	NCCC(=O)Nc1ccc(-c2nc(N3CCOCC3)c3cnn(-c4ccccc4)c3n2)cc1 [Compound 134]	1.3	–
3.4	–	CN(C)CC(=O)Nc1ccc(-c2nc(N3CCOCC3)c3cnn(-c4ccccc4)c3n2)cc1 [Compound 135]	1.2	–
1	–	NCC(=O)Nc1ccc(-c2nc(N3CCOCC3)c3cnn(-c4ccccc4)c3n2)cc1 [Compound 136]	0.4	–
4.9	–	COCCC(=O)Nc1ccc(-c2nc(N3CCOCC3)c3cnn(-c4ccccc4)c3n2)cc1 [Compound 138]	6.5	–
3	–	CN1CCC(C(=O)Nc2ccc(-c3nc(N4CCOCC4)c4cnn(-c5ccccc5)c4n3)cc2)CC1 [Compound 141]	3.8	–
4.5	–	CC(=O)N(C)c1ccc(-c2nc(N3CCOCC3)c3cnn(-c4ccccc4)c3n2)cc1 [Compound 149, N-methyl-N-[4-(4-morpholin-4-yl-1-phenyl-1H-pyrazolo[3,4-d]pyrimidin-6-yl)phenyl]acetamide]	40	–
0.1	–	Nc1ccc(-c2nc(N3CCOCC3)c3cnn(C4CCN(Cc5ccccc5)CC4)c3n2)cn1 [Compound 155]	1	–
3.4	–	c1cc2cc(-c3nc(N4CCOCC4)c4cnn([C@@H]5CCCNC5)c4n3)ccc2[nH]1 [Compound 168]	10	–
3.3	–	c1cc2cc(-c3nc(N4CCOCC4)c4cnn([C@H]5CCCNC5)c4n3)ccc2[nH]1 [Compound 170, 6-(1H-indol-5-yl)-4-morpholin-4-yl-1-[(3S)-piperidin-3-yl]-1H-pyrazolo[3,4-d]pyrimidine]	12	–
0.08	–	Nc1ncc(-c2nc(N3CCOCC3)c3cnn(C4CCN(Cc5ccccc5)CC4)c3n2)cn1 [Compound 191]	0.4	–
16	–	Oc1ccc(-c2nc(N3CCOCC3)c3cnn(C4CCN(Cc5ccccc5)CC4)c3n2)cn1 [Compound 192]	40	–
1.4	–	O=CNc1ccc(-c2nc(N3CCOCC3)c3cnn(C4CCN(Cc5ccccc5)CC4)c3n2)cc1 [Compound 231, N-{4-[1-(1-benzylpiperidin-4-yl)-4-morpholin-4-yl-1H-pyrazolo[3,4-d]pyrimidin-6-yl]phenyl}formamide]	4.5	–

IC50 (prostate line LNCap; Homo sapiens, LNCaP, 72 h) [µM]	IC50 (prostate line LNCap) [µM]	SMILES	IC50 (breast line MDA468; Homo sapiens, 72 h) [µM]	IC50 (breast line MDA468) [µM]
1.4	–	Oc1ccc(-c2nc(N3CCOCC3)c3cnn(C4CCN(Cc5ccccc5)CC4)c3n2)cc1 [Compound 232, 4-[1-(1-benzylpiperidin-4-yl)-4-morpholin-4-yl-1H-pyrazolo[3,4-d]pyrimidin-6-yl]phenol]	4	–
7	–	Nc1ccc(-c2nc(N3CCOCC3)c3cnn(-c4ccccc4)c3n2)nc1 [Compound 438, 6-(4-morpholin-4-yl-1-phenyl-1H-pyrazolo[3,4-d]pyrimidin-6-yl)pyridin-3-amine]	60	–
60	–	Nc1cccc(-c2nc(N3CCOCC3)c3cnn(-c4ccccc4)c3n2)n1 [Compound 439, 6-(4-morpholin-4-yl-1-phenyl-1H-pyrazolo[3,4-d]pyrimidin-6-yl)pyridin-2-amine]	60	–
1.4	–	O=CNc1ccc(-c2nc(N3CCOCC3)c3cnn(C4CCN(Cc5ccccc5)CC4)c3n2)cc1 [Compound 485, N-{4-[1-(1-benzylpiperidin-4-yl)-4-morpholin-4-yl-1H-pyrazolo[3,4-d]pyrimidin-6-yl]phenyl}formamide]	4.5	–
1.4	–	Oc1ccc(-c2nc(N3CCOCC3)c3cnn(C4CCN(Cc5ccccc5)CC4)c3n2)cc1 [Compound 486, 4-[1-(1-benzylpiperidin-4-yl)-4-morpholin-4-yl-1H-pyrazolo[3,4-d]pyrimidin-6-yl]phenol]	4	–
0.07	–	CNC(=S)Nc1ccc(-c2nc(N3CCOCC3)c3cnn(C4CCN(Cc5cccnc5)CC4)c3n2)cc1 [Compound 622, 1-methyl-3-(4-{4-morpholin-4-yl-1-[1-(pyridin-3-ylmethyl)piperidin-4-yl]-1H-pyrazolo[3,4-d]pyrimidin-6-yl}phenyl)thiourea]	0.5	–
–	> 60	Nc1cccc(-c2nc(N3CCOCC3)c3cnn(-c4ccccc4)c3n2)n1 [Compound 683, 6-(4-morpholin-4-yl-1-phenyl-1H-pyrazolo[3,4-d]pyrimidin-6-yl)pyridin-2-amine]	–	> 60
< 0.027	–	COC(=O)N1CCC(n2ncc3c(N4CCOCC4)nc(-c4ccc(NC(=O)Nc5ccncc5)cc4)nc32)CC1 [Compound 738, methyl 4-(4-morpholin-4-yl-6-{4-[(pyridin-4-ylcarbamoyl)amino]phenyl}-1H-pyrazolo[3,4-d]pyrimidin-1-yl)piperidine-1-carboxylate]	< 0.027	–
0.4	–	COC(=O)Nc1ccc(-c2nc(N3CCOCC3)c3cnn(C4CCN(C(=O)OC)CC4)c3n2)cc1 [Compound 739, methyl 4-(6-{4-[(methoxycarbonyl)amino]phenyl}-4-morpholin-4-yl-1H-pyrazolo[3,4-d]pyrimidin-1-yl)piperidine-1-carboxylate]	1.75	–
0.31	–	COC(=O)Nc1ccc(-c2nc(N3CCOCC3)c3cnn(C4CCN(C(=O)OC)CC4)c3n2)cc1 [Compound 740, methyl 4-(6-{4-[(methoxycarbonyl)amino]phenyl}-4-morpholin-4-yl-1H-pyrazolo[3,4-d]pyrimidin-1-yl)piperidine-1-carboxylate]	1.3	–
< 0.0008	–	COC(=O)N1CCC(n2ncc3c(N4CCOCC4)nc(-c4ccc(NC(=O)Nc5ccc(CO)cc5)cc4)nc32)CC1 [Compound 912, methyl 4-{6-[4-({[4-(hydroxymethyl)phenyl]carbamoyl}amino)phenyl]-4-morpholin-4-yl-1H-pyrazolo[3,4-d]pyrimidin-1-yl}piperidine-1-carboxylate]	< 0.0008	–
4	–	CNS(=O)(=O)Nc1ccc(-c2nc(N3CCOCC3)c3cnn(C4CCN(C(=O)OC(C)(C)C)CC4)c3n2)cc1 [Compound 951, tert-butyl 4-(6-{4-[(methylsulfamoyl)amino]phenyl}-4-morpholin-4-yl-1H-pyrazolo[3,4-d]pyrimidin-1-yl)piperidine-1-carboxylate]	7.8	–
0.75	–	Cn1ncc2c(N3CCC(n4c(=O)[nH]c5ccccc54)CC3)nc(-c3ccccc3)nc21 [Example 12]	12	–
0.5	–	COCC(=O)N1CCC(n2ncc3c(N4CCOCC4)nc(-c4cccc(O)c4)nc32)CC1 [Example 30]	1.4	–
2	–	Nc1cccc(-c2nc(N3CCOCC3)c3cnn(C4CCN(Cc5ccccc5)CC4)c3n2)c1 [Example 60]	5.5	–
10	–	CN(C)C(=O)c1ccc(-c2nc(N3CCOCC3)c3cnn(C4CCN(Cc5ccccc5)CC4)c3n2)cc1 [Example 71]	13	–
5.1	–	O=CNc1cccc(-c2nc(N3CCOCC3)c3cnn(C4CCN(Cc5ccccc5)CC4)c3n2)c1 [Example 77]	9	–
0.45	–	CC(=O)Nc1ccc(-c2nc(N3CCOCC3)c3cnn(C4CCN(Cc5ccccc5)CC4)c3n2)cc1 [Example 80, N-{4-[1-(1-benzylpiperidin-4-yl)-4-morpholin-4-yl-1H-pyrazolo[3,4-d]pyrimidin-6-yl]phenyl}acetamide]	2.3	–
10	–	COC(=O)Nc1ccc(-c2nc(N3CCOCC3)c3cnn(-c4ccccc4)c3n2)cc1 [Example 101, methyl [4-(4-morpholin-4-yl-1-phenyl-1H-pyrazolo[3,4-d]pyrimidin-6-yl)phenyl]carbamate]	22	–
0.41	–	Nc1ccc(-c2nc(N3CCOCC3)c3cnn(-c4ccccc4)c3n2)cn1 [Example 129, 5-(4-morpholin-4-yl-1-phenyl-1H-pyrazolo[3,4-d]pyrimidin-6-yl)pyridin-2-amine]	1.3	–
